Consider 16 molecules from patent US5011949A, “Ascorbic acid derivative” (Nippon Hypox Laboratories, Inc., priority 1989, dated 1991).

Assay [1] in a line: Antioxidant action examined by using stable free radicals: reduction activity of DPPH (M. S. Blois method), absorbance at 517 nm. In kind it is biochemical. To be noted: 1 mM DPPH in ethanol, after 20 minutes, difference from solvent control (0.5% or less DMF), read-out: 50% radical eliminating concentration. The protocol:
Test Example 1 (Antioxidant Action Examined by Using Stable Free Radicals)
Reduction activity of α,α-diphenyl-β-picrylhydrazyl (DPPH) which was a stable free radical was examined according to the M. S. Blois method (nature, vol. 181, page 1199, 1958) and used as an index to antioxidant action. Thus, specimens were added to 3 ml of a 1 mM DPPH solution in ethanol, and absorbance at a wavelength of 517 nm was measured using a spectrophotometer after 20 minutes. The difference in absorbance from the solvent control [0.5% or less of dimethylformamide (DMF)]was taken as the reduction activity.
Background: DPPH is a stable violet radical that fades when it is reduced.

Assay [2] is described as follows: Effects on formazan formation in the xanthine-xanthine oxidase-Nitrotetrazolium Blue system (superoxide anion radicals). In kind it is biochemical. To be noted: for Inhibition ratio (%) of formazan formation: pH 7.8, 30° C., 10 min; for inhibition of formazan formation (in words): from Table-4, 0.5 mM and 4 mM. The protocol:
Test Example 2 (Effects on Formazan Formation in the Xanthine-xanthine Oxidase-Nitrotetrazolium Blue System)
Specimens were added to a 0.05 M phosphoric acid buffer solution (pH 7.8) containing xanthine, EDTA 2Na and Nitrotetrazolium Blue (NTB) so as to provide the respective final concentrations of 5×10^-5 M, 1×10^-4 M and 5×10^-4 M and warmed at 30° C. for 30 minutes. Xanthine oxidase (manufactured by Sigma Corp.) was added, and the resulting mixtures were warmed at 30° C. for 10 minutes to colorimetrically determine formazan formed by superoxide anion radicals. The inhibition ratio of formazan formation was determined from the results at concentrations of 0.5 mM and 4 mM of each specimen.

pIC50: −log10 of the molar value.

For `CCCCOC1=C(O)[C@@H]([C@@H]2COC(C)(C)O2)OC1=O` [Compound 201], in assay [1], the pIC50 was 4.85. Further, the “Inhibition ratio (%) of formazan formation” value stood at 9.1% in assay [2] (0.5 mM) and 19.1% in assay [2] (4 mM). In addition, the “inhibition of formazan formation (in words)” value in assay [2] is listed as “remarkably inhibited formazan formation”.

For the molecule `CCOC(=O)CCCOC1=C(O)[C@@H]([C@@H]2COC(C)(C)O2)OC1=O` [Compound 202], the pIC50 in assay [1] was 4.80.

With `CC1(C)OC[C@@H]([C@H]2OC(=O)C(OCCCC(=O)O)=C2O)O1` [Compound 203], the pIC50 in assay [1] is 4.55. On the same count and under the same terms, the figure for `CCOC(=O)C(C)OC1=C(O)C(C2COC(C)(C)O2)OC1=O` (stereo not shown) [Compound 204] is 4.60; for `CCCCOC(=O)COC1=C(O)[C@@H]([C@@H]2COC(C)(C)O2)OC1=O` [Compound 205] it is 4.52. For the molecule `CC(=O)COC1=C(O)[C@@H]([C@@H]2COC(C)(C)O2)OC1=O` [Compound 206, L-5,6-O-isopropylidene-2-O-methylcarbomethylascorbic acid], in assay [1], the pIC50 is 4.85. For the same molecule, the results for the “Inhibition ratio (%) of formazan formation” value in assay [2] (0.5 mM) and in assay [2] (4 mM) were 17.8% and 55.5%, respectively. The “inhibition of formazan formation (in words)” value in assay [2] was “remarkably inhibited formazan formation”.

Regarding `CCCCCCCCCCCCCCCCCCOC1=C(O)[C@@H]([C@@H](O)CO)OC1=O` [Compound 301], the pIC50 in assay [1] was 4.55.

Consider `CCCCCCCCCCCCOC1=C(O)[C@@H]([C@@H](O)CO)OC1=O` [Compound 302], for which, in assay [1], the pIC50 is 4.59. With `CCCCCCCCOC1=C(O)[C@@H]([C@@H](O)CO)OC1=O` [Compound 303], the pIC50 in assay [1] is 4.59. Regarding `CCCCOC1=C(O)[C@@H]([C@@H](O)CO)OC1=O` [Compound 304], in assay [1], the pIC50 was 4.77. Still for that read-out and setting: the figure for `O=C1O[C@H]([C@@H](O)CO)C(O)=C1OCc1ccccc1` [Compound 305] is 4.54.

In the case of `CCOC(=O)CCCOC1=C(O)[C@@H]([C@@H](O)CO)OC1=O` [Compound 306], the pIC50 in assay [1] was 4.54.

Take `O=C(O)CCCOC1=C(O)[C@@H]([C@@H](O)CO)OC1=O` [Compound 307]: the pIC50 in assay [1] is 4.48. For the molecule `CCOC(=O)C(C)OC1=C(O)[C@@H]([C@@H](O)CO)OC1=O` (stereo partly shown) [Compound 308], the pIC50 in assay [1] is 4.60. On the same count and under the same terms, to `CCCCOC(=O)COC1=C(O)[C@@H]([C@@H](O)CO)OC1=O` [Compound 309] belongs 4.55. With `CC(=O)COC1=C(O)[C@@H]([C@@H](O)CO)OC1=O` [Compound 310, L-2-O-methylcarbomethylascorbic acid], the pIC50 in assay [1] is 4.77.
